In PubChem BioAssay (NCI) one finds TGI and GI50 data, which are given here for 14 compounds.

Holding throughout (experiment): NCI tumour cell line growth inhibition, 48 h
Test [1] concerns SF-539 CNS.
Test [2] concerns NCI-H460 lung.
The subject of test [3] is A498 renal.
In test [4] the test system is SN12C renal.
Test [5] relates to U251 CNS.
For test [6], the system named is MOLT-4 leukemia.
Test [7] has as its system HT29 colon.
In test [8] the test system is RPMI-8226 leukemia.
In test [9] the test system is HOP-62 NSCLC.

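All cell lines were grown in 96-well plates and treated with compound for 48 hours. Abbreviation: GI50, concentration required for 50% inhibition of growth. TGI: total growth inhibition.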 A value given as a limit tells only on which side of the number the result lay.

`COC(=O)/C(C#N)=C1\N=NNN1CCCc1ccccc1`: the TGI in test [1], in [2], in test [3], in test [4], in test [5] and in [6] was more than 100 µM each time. In addition, the TGI in test [7] and in test [8] was more than 100 µM in each case.

For `COc1ccccc1NC(=O)C1=C(C)NC(C)=C(C(=O)Nc2ccccc2OC)C1c1ccc(C(C)C)cc1`, the TGI in [1], in test [2], in test [3], in test [4], in test [5] and in test [9] was more than 100 µM in each case. For the same compound, the TGI in test [6], in [7] and in test [8] was more than 100 µM each time.

Turning to `CC1OC(OP(=O)(OCc2ccccc2)OCc2ccccc2)C(OC(=O)c2ccccc2)C(OC(=O)c2ccccc2)C1I` (stereo not given), the TGI in [2] is more than 100 µM; in test [4], 52.5 µM; in test [5], more than 100 µM; in test [9], more than 100 µM; in test [6], 59.1 µM; in test [7], more than 100 µM. Further, the TGI in test [8] stood at 97.8 µM.

`O=C(/C=C/c1ccccc1F)C(c1ccccc1)c1ccccc1`: the TGI in test [1] was 5.48 µM; in test [4] it was 15.2 µM; in [5], 13 µM; in test [6] it was 6.6 µM; in test [7], 11.5 µM; in test [8] it was more than 100 µM.

On to `C/C=C/C1(NS(=O)(=O)c2ccc(C)cc2)CCC(C(C)(C)C)CC1` (stereo not given), for which the TGI in [1] was 44.1 µM; in [2], 51.5 µM; in test [3], 49.3 µM; in test [4], 34.7 µM; in [5] it was 29.5 µM; in test [9] it was 49.7 µM. Besides, the TGI in test [6] is 39.9 µM; in test [7], 37.9 µM; in [8] it was 47.1 µM.

For the compound `CC(C)(C)c1ccccc1NS(=O)(=O)c1ccccc1`, the TGI in test [1], in [2], in test [3], in test [4], in test [5] and in test [9] was more than 100 µM in each case. The TGI in test [6], in test [7] and in test [8] was more than 100 µM throughout.

As for `Cc1c(Cl)cccc1NC(=O)C(=O)C1C(=O)NC(=O)NC1=O`, the TGI in [1], in test [2], in test [3], in test [4], in test [5] and in test [9] was more than 100 µM in each case. Also, the TGI in [6], in test [7] and in test [8] was more than 100 µM each time.

Turning to `CC(C)(C)c1cc(C(O)(C(F)(F)F)C(F)(F)F)c2c(c1)C(C(F)(F)F)(C(F)(F)F)OC(c1ccccc1)(C(C)(C)C)N2` (stereo not given), the TGI was more than 100 µM in test [1]; 11.7 µM in test [2]; 16.6 µM in test [4]; 10.4 µM in [5]; 4.91 µM in test [6]; 14.4 µM in test [7]. The compound also registered a TGI in test [8] of 12.1 µM.

Consider `CCOC(=O)[C@H]1Nc2ccc(O)cc2C2c3ccccc3CC21` (stereo not given in full), for which the TGI in test [1], in [2], in test [3], in test [4], in test [5] and in test [9] was more than 100 µM each time. Further, the TGI in test [6], in [7] and in test [8] was more than 100 µM throughout.

Take `C=C1C(=O)O[C@H]2[C@H]1CC/C(COC(=O)CCC(=O)OC/C1=C/CC[C@@]3(C)O[C@H]3[C@H]3OC(=O)C(=C)[C@@H]3CC1)=C\CC[C@@]1(C)O[C@@H]21`: the GI50 in [1] was 1.95 µM; in test [2] it was 4.48 µM; in [3], 10.5 µM; in [4], 2.04 µM; in [5], 2.78 µM; in [9] it was 3.21 µM. For the same compound, the results for the GI50 in [6], in test [7] and in [8] were 0.561 µM, 1.46 µM and 1.22 µM, respectively. In addition, the TGI was determined as 5.58 µM in test [1]; 17.2 µM in test [2]; 23.6 µM in test [3]; 6.63 µM in test [4]; 9.18 µM in test [5]; 10.6 µM in [9]. The TGI in test [6] came out at 2.8 µM; in [7] it was 3.03 µM; in test [8], 4.16 µM.

Consider `O=C1C(c2ccccc2)=C(c2ccccc2)C(c2ccccc2)/C1=C1\C(=O)C(c2ccccc2)=C(c2ccccc2)C1c1ccccc1` (stereo not given), for which the TGI in test [1], in test [2], in test [3], in [4], in test [5] and in test [9] was more than 100 µM in each case. The TGI in test [6], in test [7] and in test [8] was more than 100 µM throughout.

With `O=Cc1cc(O)c(O)c(O)c1-c1c(C=O)cc(O)c(O)c1O`, the TGI in test [1], in test [2], in test [3], in test [4], in test [5] and in [9] was more than 100 µM throughout. Further, the TGI in [6], in test [7] and in test [8] was more than 100 µM each time.

`Cc1cc(Cl)ccc1N1C(=O)C(=O)C(c2nc3ccccc3s2)C(=O)C1=O`: the TGI in test [1], in test [2], in test [3], in [4], in test [5] and in test [9] was more than 100 µM throughout. Further, the TGI in test [6], in test [7] and in [8] was more than 100 µM each time.

In the case of `Cc1cc2c(=O)cc(-c3ccc(Cl)cc3)oc2c(C(=O)O)c1C`, the TGI in [1], in test [2], in test [4], in test [5], in test [6] and in [7] was more than 100 µM each time. The TGI in [8] was more than 100 µM.
